Source: patent publication US4992570A, “UCN-1028A and UCN-1028C and process for the production thereof” (Kyowa Hakko Kogyo Co., Ltd., priority 1987, dated 1991)
Converted amounts (≈) assume the structure as drawn. Where two headings read alike, the source gives them in different places.

How the values were obtained:
Protein Kinase C = experiment: Protein kinase C inhibitory activity (method of Kikkawa et al.); assay type: biochemical, rat; conditions: for IC50 Protein Kinase C: crude enzyme partially purified from rat brain, [γ-32P]ATP, Histone Type IIS, 30° C., 3 minutes; for selective inhibitory activity on protein kinase C, as compared with Phleichrome: statement on Table 1 (protein kinase C vs protein kinase A)
Procedure: Protein kinase C inhibitory activity was measured by the method of Kikkawa, et al. [Journal of Biological Chemistry, 257, 13341 (1982)].
That is, 10 μl of a test solution containing UCN-1028A, UCN-1028C or Phleichrome was added to 250 μl of a solution containing 2.5 μmoles of magnesium acetate, 50 μg of Histone Type IIS (manufactured by Sigma Co., Ltd.), 20 μg of phosphatidyl serine, 0.8 μg of diolein, 25 nmoles of CaCl2, 5 μg of crude enzyme (partially purified from rat brain according to the method of Kikkawa, et al.) and 5 μmoles of Tris-hydrochloride buffer (H 7.5), followed by incubation at 30° C. for 3 minutes. Then, phosphorylation was initiated by addition of 1.25 nmoles of [γ-^32 P]ATP (5 to 10×10^3 cpm/nmole), followed by incubation at 30° C. for 3 minutes. The reaction was stopped by adding 25% trichloroacetic acid (TCA), and the reaction solution was filtered through a cellulose acetate membrane (pore size of 0.45 μm) (manufactured by Toyo Filter Paper Co., Ltd.). After the membrane was washed four times with 5% TCA, radioactivity remaining on the membrane was measured. As a control, the same procedure as above was repeated without addition of the test solution and radioactivity was likewise measured. A concentration of the test solution showing 50% inhibition as compared with the control was expressed as IC50.

Protein Kinase A = molecular target: T1, Protein Kinase A (Bos taurus, UniProt P00517); experiment: Protein kinase A inhibitory activity (method of Kuo et al.); assay type: biochemical, calf
T1 construct: partially purified from calf heart; from tissue; host or cells: calf heart (crude enzyme, partially purified by the method of Kuo et al.)
Procedure: Protein kinase A inhibitory activity was measured according to the method of Kuo, et al. [Biochemistry, 64, […].
That is, 10 μl of a test solution was added to 250 μl of a solution containing 5 μmoles of Tris-hydrochloride buffer (pH 6.8), 2.5 μmoles of magnesium acetate, 100 μg of Histone Type IIS (manufactured by Sigma Co., Ltd.), 0.25 nmoles of C-AMP and 200 μg of crude enzyme (partially purified from calf heart according to the method of Kuo, et al.). Subsequent procedures were conducted in a manner similar to the case of measuring protein kinase C inhibitory activity described above to determine IC^50.

MCF 7 cells = experiment: Anti-tumor activity: growth inhibition of MCF 7 cells (Neutral Red); assay type: cell-based; conditions: Homo sapiens
Procedure: (§1) MCF 7 cells (4.5×10^4 cells/ml) prepared in a medium comprising RPMI 1640 medium (manufactured by Gibco Co., Ltd.), 10% fetal calf serum, 10 μg/ml insulin and 10^-8 M estradiol (hereinafter referred to as medium A) were put into wells of a 96 well microtiter plate in the amount of 0.1 m(per each well. After culturing at 37° C for 20 hours in a carbon dioxide gas incubator, each test solution appropriately diluted with medium A (0.05 ml) was added thereto. Then, culturing was carried out at 37° C. for an hour in the carbon dioxide gas incubator, and the culture supernatant was removed. After the residue was washed once with […] (composition: 8 g/l NaCl, 0.2 g/l KCl, 1.5 g/l Na2 HPO4 and 0.2 g/l KH2 PO4), 0.1 ml of fresh medium A was added thereto, followed by culturing at 37° C. for 72 hours in the carbon dioxide gas incubator. Then, the culture supernatant was removed and 0.1 ml of a medium comprising medium A and 0.02% Neutral Red was added to the residue, followed by culturing at 37° C. for one hour in the carbon dioxide gas incubator, thereby staining the cells. After removal of the culture supernatant, the residue was washed once with physiological saline. Then, the pigment was extracted with 0.001 N hydrochloric acid/30% ethanol and absorbency at 550 nm was measured with a microplate reader. By comparing the absorbency of intact cells with that of the cells treated with a test solution having a known concentration, a concentration of the test solution which inhibited 50% of growth of the cells (IC50) was calculated.

HelaS3 cells = experiment: Anti-tumor activity: growth inhibition of HelaS3 cells (Neutral Red); assay type: cell-based; conditions: Homo sapiens
Procedure: as §1
HelaS3 cells (3×10^4 cells/ml) prepared in a medium comprising MEM medium (manufactured by Nissui Pharmaceutical Co., Ltd.) and 2 mM glutamine were put into wells of a 96 well microtiter plate in the amount of 0.1 ml per each well. In a manner similar to the case of MCF 7 cells described above, IC^50 was calculated.

[1] = MCF7, 1 hour exposure, then 72 hours culture at 37° C., Neutral Red, 550 nm, read-out: IC50 MCF 7 cells
[2] = HeLa S3, similar to MCF 7 cells, MEM medium, 2 mM glutamine, read-out: IC50 HelaS3 cells

Structure (SMILES) | IC50 Protein Kinase C (Protein Kinase C) | selective inhibitory activity on protein kinase C, as compared with Phleichrome (Protein Kinase C) | IC50 (Protein Kinase A) | IC50 (MCF 7 cells; [1]) | IC50 (HelaS3 cells; [2]) | Solubility in acetone (Solubility) | Solubility in alkaline water (Solubility) | Solubility in chloroform (Solubility) | Solubility in ethyl acetate (Solubility) | Solubility in methanol (Solubility) | Solubility in n-hexane (Solubility; n-hexane) | Solubility in water (Solubility) | IC50 (Protein Kinase A; crude enzyme partially purified from calf heart, Histone Type IIS, C-AMP, pH 6.8, read-out: IC50 Protein Kinase A) | IC50 (MCF 7 cells; MCF7, read-out: IC50 MCF 7 cells) | IC50 (HelaS3 cells; HeLa S3, read-out: IC50 HelaS3 cells) | Solubility in DMSO (Solubility; DMSO)
COc1c(CC(C)OC(=O)c2ccccc2)c2c3c(CC(C)OC(=O)c4ccccc4)c(OC)c(=O)c4c(O)cc(OC)c(c5c(OC)cc(O)c(c1=O)c52)c43 (stereo not shown) [UCN-1028A] | 0.19 µg/mL (≈ 0.25 µM) | selective inhibitory activity on protein kinase C | > 52.7 µM | 0.21 µg/mL (≈ 0.277 µM) | 0.29 µg/mL (≈ 0.382 µM) | soluble | soluble | readily soluble | readily soluble | soluble | soluble | insoluble |  |  |  | 
COc1c(CC(C)OC(=O)Oc2ccc(O)cc2)c2c3c(CC(C)OC(=O)c4ccccc4)c(OC)c(=O)c4c(O)cc(OC)c(c5c(OC)cc(O)c(c1=O)c52)c43 (stereo not shown) [UCN-1028C] | 0.07 µg/mL (≈ 0.0885 µM) | selective inhibitory activity on protein kinase C |  |  |  | soluble | soluble | soluble | soluble | readily soluble |  | insoluble | > 50.6 µM | 0.18 µg/mL (≈ 0.228 µM) | 0.19 µg/mL (≈ 0.24 µM) | readily soluble
COc1c(CC(C)O)c2c3c(CC(C)O)c(OC)c(=O)c4c(O)cc(OC)c(c5c(OC)cc(O)c(c1=O)c52)c43 (stereo not shown) [Phleichrome, reference compound] | 5.5 µg/mL (≈ 9.99 µM) |  | 59.9 µM | 0.7 µg/mL (≈ 1.27 µM) | 0.61 µg/mL (≈ 1.11 µM) |  |  |  |  |  |  |  |  |  |  | 
